Source: ChEMBL document CHEMBL5385865, “Discovery and optimization of 2-(trifluoromethyl)benzimidazole derivatives as novel ferroptosis inducers in vitro and in vivo” (Eur J Med Chem, 2023)
Active and inactive are the calls of the source. The rule behind the calls is not given here.

Experiments:
HT-1080 [1] = test: Lethality in human HT-1080 cells assessed as inhibition of cell viability incubated for 24 hrs by MTT assay; assay type: functional, cell-based; conditions: HT-1080, 24 h
[2] = Metabolic stability in human liver microsomes assessed as half life at 1 uM in presence of NADPH by LC-MS analysis; assay type: ADME, Microsome
[3] = Metabolic stability in […] rat microsomes assessed as half life at 1 uM in presence of NADPH by LC-MS analysis; assay type: ADME, Liver, Microsome
[4] = Metabolic stability in rat liver microsomes assessed as intrinsic clearance measured per mg protein at 1 uM in presence of NADPH by LC-MS analysis; assay type: ADME, Microsome; conditions: read-out: CLH
[5] = Metabolic stability in human liver microsomes assessed as intrinsic clearance measured per mg protein at 1 uM in presence of NADPH by LC-MS analysis; assay type: ADME, Microsome; conditions: read-out: CLH
HT-1080 [6] = test: Lethality in human HT-1080 cells assessed as cell survival at 10 uM incubated for 24 hrs by MTT assay relative to control; assay type: functional; conditions: read-out: Activity
[7] = target: T1, Phospholipid hydroperoxide glutathione peroxidase GPX4 (Homo sapiens) (UniProt P36969); test: Inhibition of GPX4 in human HT-1080 cells at 5 uM incubated for 2 hrs; assay type: cell-based
T1 sequence (whole entry): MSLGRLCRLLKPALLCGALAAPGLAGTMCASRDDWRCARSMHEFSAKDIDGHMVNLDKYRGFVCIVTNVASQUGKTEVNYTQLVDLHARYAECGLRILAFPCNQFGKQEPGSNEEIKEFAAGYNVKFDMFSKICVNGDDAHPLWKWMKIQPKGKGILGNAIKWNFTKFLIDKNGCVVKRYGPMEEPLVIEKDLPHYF

[8] = target: T2, Cystine/glutamate transporter (Homo sapiens) (UniProt Q9UPY5); test: Inhibition of Xc- in human HT-1080 cells assessed as decrease in glutamate release at 5 uM incubated for 3 hrs by Amplex red assay; assay type: cell-based
T2 sequence (whole entry): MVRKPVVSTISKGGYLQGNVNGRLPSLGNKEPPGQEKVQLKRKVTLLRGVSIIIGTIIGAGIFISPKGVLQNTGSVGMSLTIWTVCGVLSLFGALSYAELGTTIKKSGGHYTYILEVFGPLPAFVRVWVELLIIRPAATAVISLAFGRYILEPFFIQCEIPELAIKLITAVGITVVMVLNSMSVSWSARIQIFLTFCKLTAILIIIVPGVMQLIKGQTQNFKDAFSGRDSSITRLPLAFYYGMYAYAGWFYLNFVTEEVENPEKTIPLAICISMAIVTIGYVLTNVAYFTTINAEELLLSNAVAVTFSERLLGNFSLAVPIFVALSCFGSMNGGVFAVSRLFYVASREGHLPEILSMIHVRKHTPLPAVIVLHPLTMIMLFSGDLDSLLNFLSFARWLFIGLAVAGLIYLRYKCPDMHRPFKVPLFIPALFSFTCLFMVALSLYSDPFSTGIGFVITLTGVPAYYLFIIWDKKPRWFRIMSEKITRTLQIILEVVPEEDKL

**Q.** For `CCN(CC)C(=O)c1ccc(N2CCC(Cn3c(C(F)(F)F)nc4ccccc43)CC2)cn1`, which IC50 (HT-1080 [1]) is on record?
**A.** Its IC50 is 3.46 µM.

**Q.** With `O=C(c1ccc(N2CCC(Cn3c(C(F)(F)F)nc4ccccc43)CC2)cc1)N1CCCC1` as the compound, how does the half-life at 1 µM [2] read?
**A.** Its half-life at 1 µM is 13.2 min.

**Q.** And the IC50 (HT-1080 [1])?
**A.** The IC50 was 1.49 µM.

**Q.** What about the half-life at 1 µM [3] of the same compound?
**A.** The half-life at 1 µM was 8.6 min.

**Q.** What about the microsomal CLint at 1 µM [4] of the same compound?
**A.** Its microsomal CLint at 1 µM is 164 µL/min/mg.

**Q.** What about the microsomal CLint at 1 µM [5] of the same compound?
**A.** The microsomal CLint at 1 µM was 105 µL/min/mg.

**Q.** With `CN(C)S(=O)(=O)c1ccc(N2CCC(Cn3c(-c4ccccc4)nc4ccccc43)CC2)cc1` as the compound, how does the viability at 10 µM (HT-1080 [6]) read?
**A.** The viability at 10 µM was under 50%.

**Q.** For `CN(C)C(=O)c1ccc(N2CCC(Cn3ccc4ccccc43)CC2)cc1Cl`, which viability at 10 µM (HT-1080 [6]) is on record?
**A.** The viability at 10 µM was under 50%.

**Q.** Which viability at 10 µM (HT-1080 [6]) does the source give for `COC(=O)c1ccc(N2CCC(Cn3c(C(F)(F)F)nc4ccccc43)CC2)cc1Cl` here?
**A.** Its viability at 10 µM is under 50%.

**Q.** With `FC(F)(F)c1nc2ccccc2n1CC1CCN(c2ccc(C3CCCCC3)cc2)CC1` as the compound, how does the viability at 10 µM (HT-1080 [6]) read?
**A.** The viability at 10 µM was under 50%.

**Q.** With `CC(C)Oc1ccc(N2CCC(Cn3c(C(F)(F)F)nc4ccccc43)CC2)cc1Cl` as the compound, how does the viability at 10 µM (HT-1080 [6]) read?
**A.** The viability at 10 µM was under 50%.

**Q.** Which IC50 (HT-1080 [1]) does the source give for `CN(C)C(=O)c1ccc(N2CCC(Cn3c(C(F)(F)F)nc4ccccc43)CC2)cc1Cl` here?
**A.** Its IC50 is 2.53 µM.

**Q.** With `COC(=O)c1ccc(N2CCC(Cn3c(C(F)(F)F)nc4ccccc43)CC2)cc1S(C)(=O)=O` as the compound, how does the IC50 (HT-1080 [1]) read?
**A.** The IC50 was 6.64 µM.

**Q.** For `CCN(CC)C(=O)c1ccc(N2CCC(Cn3c(C(F)(F)F)nc4ccccc43)CC2)cc1`, which IC50 (HT-1080 [1]) is on record?
**A.** Its IC50 is 2.21 µM.

**Q.** For `CN(C)C(=O)c1ccc(N2CCC(Cn3cnc4ccccc43)CC2)cc1Cl`, which viability at 10 µM (HT-1080 [6]) is on record?
**A.** The viability at 10 µM was under 50%.

**Q.** With `CS(=O)(=O)c1cc(N2CCC(Cn3c(C(F)(F)F)nc4ccccc43)CC2)ccc1CO` as the compound, how does the IC50 (HT-1080 [1]) read?
**A.** The IC50 was 7.47 µM.

**Q.** With `CN(C)C(=O)c1cccc(N2CCC(Cn3c(C(F)(F)F)nc4ccccc43)CC2)c1` as the compound, how does the viability at 10 µM (HT-1080 [6]) read?
**A.** The viability at 10 µM was under 50%.

**Q.** Which IC50 (HT-1080 [1]) does the source give for `CN(C)C(=O)c1ccc(N2CCC(Cn3c(C(F)(F)F)nc4ccccc43)CC2)cc1` here?
**A.** The IC50 was 3.06 µM.

**Q.** For `CN(C)C(=O)c1ccc(N2CCC(Cn3c(C(F)(F)F)nc4ccccc43)CC2)cc1F`, which IC50 (HT-1080 [1]) is on record?
**A.** The IC50 was 2.11 µM.

**Q.** With `CN(C)c1ccc(C(=O)N2CCC(Cn3c(C(F)(F)F)nc4ccccc43)CC2)cc1` as the compound, how does the IC50 (HT-1080 [1]) read?
**A.** The IC50 was 8.17 µM.

**Q.** Which half-life at 1 µM [2] does the source give for `O=S(=O)(c1ccc(N2CCC(Cn3c(C(F)(F)F)nc4ccccc43)CC2)cc1)N1CCOCC1` here?
**A.** The half-life at 1 µM was 11.7 min.

**Q.** What about the IC50 (HT-1080 [1]) of the same compound?
**A.** Its IC50 is 1.89 µM.

**Q.** And the half-life at 1 µM [3]?
**A.** The half-life at 1 µM was 7.4 min.

**Q.** What about the microsomal CLint at 1 µM [4] of the same compound?
**A.** The microsomal CLint at 1 µM was 187 µL/min/mg.

**Q.** What about the microsomal CLint at 1 µM [5] of the same compound?
**A.** The microsomal CLint at 1 µM was 118 µL/min/mg.

**Q.** Which viability at 10 µM (HT-1080 [6]) does the source give for `COc1ccc(N2CCC(Cn3c(C(F)(F)F)nc4ccccc43)CC2)cc1Cl` here?
**A.** The viability at 10 µM was under 50%.

**Q.** For `CN1C(=O)c2ccc(N3CCC(Cn4c(C(F)(F)F)nc5ccccc54)CC3)cc2C1=O`, which viability at 10 µM (HT-1080 [6]) is on record?
**A.** Its viability at 10 µM is under 50%.

**Q.** Which viability at 10 µM (HT-1080 [6]) does the source give for `FC(F)(F)c1ccc(N2CCC(Cn3c(C(F)(F)F)nc4ccccc43)CC2)cc1Cl` here?
**A.** Its viability at 10 µM is under 50%.

**Q.** For `CC(=O)Nc1ccc(N2CCC(Cn3c(C(F)(F)F)nc4ccccc43)CC2)cc1Cl`, which viability at 10 µM (HT-1080 [6]) is on record?
**A.** Its viability at 10 µM is under 50%.

**Q.** With `O=C(COc1ccc(Cl)cc1)N1CCC(Cn2c(C(F)(F)F)nc3ccccc32)CC1` as the compound, how does the IC50 (HT-1080 [1]) read?
**A.** Its IC50 is 3.16 µM.

**Q.** With `CCOc1cccc(-c2nc3ccccc3n2CC2CCN(c3ccc(S(=O)(=O)N(C)C)cc3)CC2)c1` as the compound, how does the viability at 10 µM (HT-1080 [6]) read?
**A.** The viability at 10 µM was under 50%.

**Q.** Which viability at 10 µM (HT-1080 [6]) does the source give for `FC(F)(F)c1nc2ccccc2n1CC1CCN(c2ccc(N3CCOCC3)c(Cl)c2)CC1` here?
**A.** The viability at 10 µM was under 50%.

**Q.** Which inhibition [7] does the source give for `COC(=O)c1ccc([C@H]2c3[nH]c4ccccc4c3C[C@H](C(=O)OC)N2C(=O)CCl)cc1` here?
**A.** Its inhibition is “Active”.

**Q.** Which IC50 (HT-1080 [1]) does the source give for `CN(C)c1ccc(CC(=O)N2CCC(Cn3c(C(F)(F)F)nc4ccccc43)CC2)cc1` here?
**A.** Its IC50 is 3.48 µM.

**Q.** Which inhibition [8] does the source give for `CCOc1ccccc1-n1c(C(C)N2CCN(C(=O)COc3ccc(Cl)cc3)CC2)nc2ccccc2c1=O` (stereo not given) [ERASTIN] here?
**A.** Its inhibition is “Active”.

**Q.** What about the half-life at 1 µM [2] of the same compound?
**A.** The half-life at 1 µM was 4 min.

**Q.** And the IC50 (HT-1080 [1])?
**A.** The IC50 was 1.52 µM.

**Q.** What about the half-life at 1 µM [3] of the same compound?
**A.** The half-life at 1 µM was 3.5 min.

**Q.** What about the microsomal CLint at 1 µM [4] of the same compound?
**A.** Its microsomal CLint at 1 µM is 400 µL/min/mg.

**Q.** What about the microsomal CLint at 1 µM [5] of the same compound?
**A.** Its microsomal CLint at 1 µM is 349 µL/min/mg.

**Q.** For `CC(C)c1ccc(N2CCC(Cn3c(C(F)(F)F)nc4ccccc43)CC2)cc1`, which viability at 10 µM (HT-1080 [6]) is on record?
**A.** The viability at 10 µM was under 50%.

**Q.** For `CN(C)C(=O)c1ccc(N2CCC(Cn3cnc4c(C(F)(F)F)cccc43)CC2)cc1Cl`, which viability at 10 µM (HT-1080 [6]) is on record?
**A.** The viability at 10 µM was under 50%.

**Q.** Which viability at 10 µM (HT-1080 [6]) does the source give for `CC(C)(C)c1ccc(N2CCC(Cn3c(C(F)(F)F)nc4ccccc43)CC2)cc1` here?
**A.** Its viability at 10 µM is under 50%.

**Q.** Which viability at 10 µM (HT-1080 [6]) does the source give for `CCOc1ccccc1Cc1nc2ccccc2n1CC1CCN(c2ccc(S(=O)(=O)N(C)C)cc2)CC1` here?
**A.** The viability at 10 µM was under 50%.

**Q.** Which viability at 10 µM (HT-1080 [6]) does the source give for `CCOc1ccccc1-c1nc2ccccc2n1CC1CCN(c2ccc(S(=O)(=O)N(C)C)cc2)CC1` here?
**A.** The viability at 10 µM was under 50%.
